Assay results from patent publication US20060009475A1, “Quinazolinone compounds in combined modalities for improved cancer treatment” (priority 2001, published 2006).
Several values for one entry are separate records, joined by “and”; a condition that tells them apart may be missing. Identical values can stand only once.

What was measured:
[1] = tested on: rabbit aortic smooth muscle cells (SMC); experiment: [3H]-thymidine incorporation / cell cycle arrest in serum-stimulated smooth muscle cells; format: cell-based
Protocol: Experiments were conducted to determine the specific phase of the cell cycle in which SMC treated with halofuginone were arrested.
As determined by [^3H]-thymidine incorporation, addition of 10% FBS to growth-arrested, quiescent SMC promotes entry of the cells to S phase after a G1 period of 16 hours. Maximal DNA synthesis was seen 20 hours after serum-stimulation (FIG. 1).
It was next determined whether halofuginone arrested proliferation at a specific stage in the cell cycle. For these experiments, quiescent SMCs were kept in 10% FBS plus 10^−7 M halofuginone for 24 hours. The cultures were then washed and placed in 10% FBS with [^3H]-thymidine and without halofuginone. At various times after halofuginone removal, the cells were harvested and thymidine incorporation was determined. When halofuginone-treated cells were released from growth-arrest, there was a lag of 4-6 hours before initiation of DNA synthesis, which peaked by 10 hours (FIG. 1).

[2] = tested on: pancreatic cancer cell lines 3602 Xrt and 3602 Zyrd/Xrt; experiment: Radiation survival of pancreatic cancer cell lines pre-treated with halofuginone; format: cell-based, human; details: 250 nM halofuginone for 24 hr, then radiated with 0-8 Gy
Protocol: Two pancreatic cancer cell lines: 3602 Xrt and 3602 Zyrd/Xrt were incubated with or without 250 nM halofuginone for 24 hr, than radiated with 0-8 Gy. Survival fraction of the cell was determined.

U266 cells = experiment: Cell cycle analysis of multiple myeloma cells by flow cytometry; format: cell-based; details: 48 hours, different concentrations
Protocol: Multiple Myeloma (MM) cell line U266B1 was purchased from ATCC (TIB-196).
Cells (10^6) were incubated for 48 hours with different concentrations of halofuginone. The cells were permeabilized with 70% ethanol in PBS for 30 minutes at 4° C., and then incubated with 0.5 ml of a 50 μg/ml Propidium Iodide solution containing 20 U/ml RnaseA for 30 minutes. Cells were analyzed by flow cytometry.

[3] = tested on: radiation-induced fibrosis (leg contraction); experiment: Leg contraction model of radiation-induced fibrosis; format: in vivo, mice
Protocol: Mice were injected intraperitoneally once daily with 1-5 μg/mouse of halofuginone, for a period of 4 months.
The right leg only of each animal was radiated with 35Gy or 45Gy. […] Measurements were taken within time periods of 2 to 4 months after radiation.

[4] = tested on: rat mesangial cells (RMC); experiment: Cell cycle analysis of mesangial cells by propidium iodide FACScan; format: cell-based; details: 150 ng/ml halofuginone, 24 hours, 10% FCS
Protocol: Further experiments were conducted to determine whether halofuginone arrests mesangial cell proliferation at a specific phase of the cell cycle.
For this purpose sub confluent RMC's were kept in 10% FCS in the absence or presence of 150 ng/ml halofuginone for 24 hours. The cells were then harvested, stained with propidium iodide and analyzed by FACScan. The percentage of cells progressing into G2/M phase was reduced by halofuginone from 20% to 7%. The percentage of cells in G0/G1 was increased from 38% in the absence of halofuginone to 65% in the presence of halofuginone.

[5] = tested on: human T98G glioblastoma (ic tumor); experiment: Human T98G glioblastoma implanted intracranially, survival (increase-in-lifespan); details: BCNU 15 mg/kg ip, days 7, 9, 11, alone
Protocol: Halofuginone was tested in the human T98G glioblastoma xenograft implanted subcutaneously or intracranially. Mice were implanted with the human T98G glioblastoma tumor cells subcutaneously in a thigh or intracranially.
Halofuginone was administered orally by gavage at dose levels of 0.1,0.2, and 0.5 mg/kg/day, once per day, on days 4 through 34 days post tumor implantation. Each group contained 5 mice.
The endpoint for the subcutaneous tumor was tumor growth delay while the endpoint for the intracranial tumor was increase-in-lifespan (survival).

[6] = tested on: human T98G glioblastoma xenograft (sc tumor); format: in vivo, mice; details: BCNU 15 mg/kg ip, days 7, 9, 11, alone
Text: Each group contained 5 mice.

[7] = cited from earlier work
[8] = 24 hours 10^-7 M halofuginone + 10% FBS, then washed

## O=C(CC1NCCC[C@H]1O)Cn1cnc2cc(Br)c(Cl)cc2c1=O (stereo in doubt) [halofuginone, 7-bromo-6-chloro-3-[3-(3-hydroxy-2-piperidinyl)-2-oxopropyl]-4(3H)-quinazolinone]
[1]; 10^-7 M halofuginone added with 10% FBS to quiescent SMC
  [3H]-thymidine incorporation: only low levels
[1]; [8]
  lag before initiation of DNA synthesis after release from growth-arrest: 4 to 6 h
  time of peak DNA synthesis after halofuginone removal: 10 h
[1]; continual presence of halofuginone
  cell cycle phase of arrest: reversibly arrest at late G1 phase
[2]
  decrease in the survival fraction: approximately 50%
U266 cells
  number of cells arrested in G1 phase: elevation
[3]; 1-5 μg/mouse ip once daily, 35Gy or 45Gy, 2 and 4 months post radiation
  leg length difference between the right and left leg: dramatic decrease
[3]; versus mice that did not receive halofuginone
  condition of irradiated leg (stiffness, skin): definitely less stiff, and the skin was less dry
[4]
  percentage of cells in G0/G1: 65%
  percentage of cells progressing into G2/M phase: 7%

## O=NN(CCCl)C(=O)NCCCl [BCNU, 1,3-bis(2-chloroethyl)-1-nitrosourea]
[5]
  SURVIVAL Days (ic tumor): 97 ± 21 days
[6]
  TUMOR GROWTH DELAY Days (sc tumor): 3.8 days and 3.9 ± 0.4 days

## Bleomycin
[7]
  death of patients associated with pulmonary fibrosis: 1% to 2
  treated patients with induced pulmonary fibrosis: 10% to 30
